In patent US9079906B2, “Triazolopyridazines as PAR1 inhibitors, production thereof, and use as medicaments” (Sanofi, priority 2008, dated 2015):
Counter-ions that a name gives are not always drawn.

molecular target: PAR1 (Homo sapiens (Human), UniProt P25116); assay: PAR1 binding test (radioligand displacement, membrane preparation); settings: human PAR1 expressed in High Five insect cell membranes; radioligand 20 nM; read-out: Inhibition of binding IC50
Protocol: The synthesized substances were examined in a PAR1 binding test. This tested whether the substances can inhibit the binding of a radioactively labeled PAR1 agonist known from the literature at the PAR1 receptor (Ho-Sam Ahn, Mol Pharm, 51:350-356, 1997). The human PAR1 receptor was expressed transiently in High Five insect cells. From these cells, after 48 hours, a membrane preparation was produced by standard methods, aliquoted into 10 mM Tris-HCl; 0.3 mM EDTA; 1 mM EGTA; 250 mM sucrose pH 7.5, and stored at −80° C.
The substances were preincubated with the membrane at room temperature for 15 minutes, then the radioligand (ALA-(para-F-Phe)-Arg-ChA-homoArg-(3,4-^3H-Tyr)-NH2; approx. 40 Ci/mMol) was added. The end concentration of the radioligand in the test buffer (50 mM Tris-HCl; 10 mM MgCl2; 1 mM EGTA; 0.1% BSA; 2% DMSO) was 20 nM, that of the membrane 1 mg/ml. After an incubation time of 60 minutes, 25 μL of the mixture were transferred to a 96-well MultiScreenHTS FB microtiter filtration plate (from Millipore), which had been pretreated beforehand with a 0.75% aqueous polyethyleneimine solution for 5 hours at room temperature. Thereafter, with vacuum extraction, each well was washed four times with 300 μL of buffer (50 mM Tris-HCl; 10 mM MgCl2; 1 mM EGTA). The plate was then dried overnight, 100 μl of scintillator per well were added, and the plate was analyzed after 6 hours in a Wallac MicroBeta (from PerkinElmer) liquid scintillation counter. The nonspecific binding was determined in the presence of 100 μM SCH79797 (PAR-1 antagonist; from Tocris, Cat. No. 1592) and subtracted from all measurements. The 100% value used was a control without inhibitor. The % inhibition values of a substance dilution series were used to calculate the IC50 with the aid of nonlinear regression analysis according to the 4-parameter equation.

PAR1, sequence (P25116 22-425): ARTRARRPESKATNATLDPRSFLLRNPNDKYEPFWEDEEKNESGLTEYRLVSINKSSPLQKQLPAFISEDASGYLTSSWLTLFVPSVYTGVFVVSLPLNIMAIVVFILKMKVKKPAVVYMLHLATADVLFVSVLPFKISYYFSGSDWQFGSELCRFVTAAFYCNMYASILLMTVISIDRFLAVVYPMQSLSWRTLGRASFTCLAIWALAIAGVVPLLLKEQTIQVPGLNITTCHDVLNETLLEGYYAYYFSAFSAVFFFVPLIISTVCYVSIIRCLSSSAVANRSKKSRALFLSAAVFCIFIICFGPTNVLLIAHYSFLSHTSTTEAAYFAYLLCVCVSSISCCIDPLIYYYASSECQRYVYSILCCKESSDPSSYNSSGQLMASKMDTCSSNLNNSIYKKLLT

| SMILES | IC50 [nM] |
| --- | --- |
| CCOc1nn2c(=N)n(CC(=O)c3cc(OCCCF)cc(C(C)(C)C)c3)nc2c(C)c1C [Example 222, 1-[3-tert-butyl-5-(3-fluoro-propoxy)phenyl]-2-(6-ethoxy-3-imino-7,8-dimethyl-[1,2,4]triazolo[4,3-b]pyridazin-2-yl)ethanone hydrochloride] | 416 |
| CCOc1nn2c(=N)n(CC(=O)c3cc(N4CCOCC4)c(OC)c(C(C)(C)C)c3)nc2cc1CC [Example 144, 1-(3-tert-butyl-4-methoxy-5-morpholin-4-ylphenyl)-2-(6-ethoxy-7-ethyl-3-imino-[1,2,4]triazolo[4,3-b]pyridazin-2-yl)ethanone trifluoroacetic acid salt] | 827 |
| COc1c(N2CCOCC2)cc(C(=O)Cn2nc3ccc(Cl)nn3c2=N)cc1C(C)(C)C [Example 56, 1-(3-tert-butyl-4-methoxy-5-morpholin-4-ylphenyl)-2-(6-chloro-3-imino-[1,2,4]triazolo-[4,3-b]pyridazin-2-yl)-ethanone trifluoroacetic acid salt] | 24000 |
| COc1c(OCCCCO)cc(C(=O)Cn2nc3c(C)cc(OCC4CC4)nn3c2=N)cc1C(C)(C)C [Example 199, 1-[3-tert-butyl-5-(4-hydroxy-butoxy)-4-methoxyphenyl]-2-(6-cyclopropylmethoxy-3-imino-8-methyl-[1,2,4]triazolo[4,3-b]pyridazin-2-yl)ethanone hydrochloride] | 206 |
| CCC(CC)Oc1cc(C)c2nn(CC(=O)c3cc(OCCO)c(OC)c(C(C)(C)C)c3)c(=N)n2n1 [Example 117, 1-[3-tert-butyl-5-(2-hydroxy-ethoxy)-4-methoxyphenyl]-2-[6-(1′-ethylpropoxy)-3-imino-8-methyl-[1,2,4]triazolo[4,3-b]-pyridazin-2-yl]ethanone hydrochloride] | 98 |
| CCC(CC)Oc1ccc2nn(CC(=O)c3cc(N4CCOCC4)c(OC)c(C(C)(C)C)c3)c(=N)n2n1 [Example 14, 1-(3-tert-butyl-4-methoxy-5-morpholin-4-ylphenyl)-2-[6-(1-ethylpropoxy)-3-imino-[1,2,4]triazolo[4,3-b]pyridazin-2-yl)ethanone trifluoroacetic acid salt] | 279 |
| CCOc1nn2c(=N)n(CC(=O)c3cc(OC)cc(S(F)(F)(F)(F)F)c3)nc2cc1N(CC)CC [Example 84, 2-(7-diethylamino-6-ethoxy-3-imino-[1,2,4]triazolo[4,3-b]pyridazin-2-yl)-1-[3-methoxy-5-(pentafluorosulfanyl)-phenyl]ethanone trifluoroacetic acid salt] | 9800 |
| Cc1c(OC(C)C)nn2c(=N)n(CC(=O)c3cc(OCCO)cc(C(C)(C)C)c3)nc2c1C [Example 215, 1-[3-tert-butyl-5-(2-hydroxy-ethoxy)phenyl]-(3-imino-6-isopropoxy-7,8-dimethyl-[1,2,4]triazolo[4,3-b]pyridazin-2-yl)ethanone hydrochloride] | 219 |
| Cc1cc(OCC2(C)COC2)nn2c(=N)n(CC(=O)c3cc(OCCO)cc(C(C)(C)C)c3)nc12 [Example 236, 1-[3-tert-butyl-5-(2-hydroxy-ethoxy)phenyl]-2-[3-imino-8-methyl-6-(3-methyloxetan-3-ylmethoxy)-[1,2,4]triazolo[4,3-b]-pyridazin-2-yl]ethanone hydrobromide] | 1400 |
| CC(C)Oc1cc(OC(C)C)c2nn(CC(=O)c3cc(OCCO)cc(C(C)(C)C)c3)c(=N)n2n1 [Example 240, 1-[3-tert-butyl-5-(2-hydroxy-ethoxy)phenyl]-2-(3-imino-6,8-diisopropoxy-[1,2,4]triazolo[4,3-b]pyridazin-2-yl)ethanone hydrochloride] | 484 |
| CCOc1cc(CC)c2nn(CC(=O)c3cc(OCCCO)c(OC)c(C(C)(C)C)c3)c(=N)n2n1 [Example 174, 1-[3-tert-butyl-5-(3-hydroxy-propoxy)-4-methoxyphenyl]-2-(6-ethoxy-8-ethyl-3-imino-[1,2,4]triazolo[4,3-b]pyridazin-2-yl)ethanone hydrochloride] | 183 |
| CCNC(=O)c1nn2/c(=N/C)n(CC(=O)c3cc(OCCO)c(OC)c(C(C)(C)C)c3)nc2c(C)c1C [Example 207, N-ethyl-2-{2-[3-tert-butyl-5-(2-hydroxyethoxy)-4-methoxy-phenyl]-2-oxoethyl}-7,8-dimethyl-3-[(E)-methylimino]-2,3-dihydro-[1,2,4]triazolo[4,3-b]pyridazine-6-carboxamide hydrochloride] | 174 |
| CCC(CC)Oc1cc(C)c2nn(CC(=O)c3cc(OCCO)cc(C(C)(C)C)c3)c(=N)n2n1 [Example 89, 1-[3-tert-butyl-5-(2-hydroxyethoxy)phenyl]-2-[6-(1-ethylpropoxy)-3-imino-8-methyl-[1,2,4]triazolo[4,3-b]pyridazin-2-yl]ethanone hydrochloride] | 107 |
| CCC(CC)Oc1ccc2nn(CC(=O)c3cc(OCCOC)cc(C(C)(C)C)c3)c(=N)n2n1 [Example 50, 1-[3-tert-butyl-5-(2-methoxy-ethoxy)phenyl]-2-[6-(1-ethylpropoxy)-3-imino-[1,2,4]triazolo[4,3-b]pyridazin-2-yl]ethanone hydrochloride] | 631 |
| CCOc1nn2c(=N)n(CC(=O)c3cc(OCCCO)c(OC)c(C(C)(C)C)c3)nc2c(CC)c1CC [Example 197, 1-[3-tert-butyl-5-(3-hydroxy-propoxy)-4-methoxyphenyl]-2-(6-ethoxy-7,8-diethyl-3-imino-[1,2,4]triazolo[4,3-b]pyridazin-2-yl)ethanone hydrochloride] | 149 |
| CCC(CC)Oc1ccc2nn(CC(=O)c3cc(OCC4CC4)cc(C(C)(C)C)c3)c(=N)n2n1 [Example 26, 1-(3-tert-butyl-5-cyclopropylmethoxyphenyl)-2-[6-(1-ethylpropoxy)-3-imino-[1,2,4]triazolo[4,3-b]pyridazin-2-yl]ethanone hydrochloride] | 1100 |
| CCOc1nn2c(=N)n(CC(=O)c3cc(C(C)(C)C)cc(C(C)(C)OC)c3)nc2c(C)c1C [Example 230, 1-[3-tert-butyl-5-(1-methoxy-1-methylethyl)phenyl]-2-(6-ethoxy-3-imino-7,8-dimethyl-[1,2,4]triazolo[4,3-b]pyridazin-2-yl)ethanone hydrochloride] | 234 |
| CCC(CC)Oc1cc(C)c2nn(CC(=O)c3cc(OCCO)cc(S(F)(F)(F)(F)F)c3)c(=N)n2n1 [Example 161, 2-[6-(1-ethylpropoxy)-3-imino-8-methyl-[1,2,4]triazolo[4,3-b]pyridazin-2-yl]-1-[3-(2-hydroxy-ethoxy)-5-(pentafluorosulfanyl)-phenyl]ethanone trifluoroacetic acid salt] | 365 |
| CCN(CC)c1nn2c(=N)n(CC(=O)c3cc(OCCCO)c(OC)c(C(C)(C)C)c3)nc2c(C)c1C [Example 186, 1-[3-tert-butyl-5-(3-hydroxy-propoxy)-4-methoxyphenyl]-2-(6-diethylamino-3-imino-7,8-methyl-[1,2,4]triazolo[4,3-b]pyridazin-2-yl)ethanone hydrochloride] | 119 |
| COCCCOc1cc(C(=O)Cn2nc3c(C)cc(OCCO)nn3c2=N)cc(C(C)(C)C)c1 [Example 101, 1-[3-tert-butyl-5-(3-methoxy-propoxy)phenyl]-2-[6-(2-hydroxyethoxy)-3-imino-8-methyl-[1,2,4]triazolo[4,3-b]pyridazin-2-yl]ethanone hydrochloride] | 1400 |
| CCNC(=O)c1nn2/c(=N/C)n(CC(=O)c3cc(OCCCO)c(OC)c(C(C)(C)C)c3)nc2c(C)c1C [Example 239, N-ethyl-2-{2-[3-tert-butyl-5-(3-hydroxypropoxy)-4-methoxy-phenyl]-2-oxoethyl}-7,8-dimethyl-3-[(E)-methylimino]-2,3-dihydro-[1,2,4]triazolo[4,3-b]pyridazine-6-carboxamide hydrochloride] | 113 |
| CCOc1cc(C(C)(C)O)c2nn(CC(=O)c3cc(OCCCO)c(OC)c(C(C)(C)C)c3)c(=N)n2n1 [Example 168, 1-[3-tert-butyl-5-(3-hydroxy-propoxy)-4-methoxyphenyl]-2-[6-ethoxy-8-(1-hydroxy-1-methyl-ethyl)-3-imino-[1,2,4]triazolo[4,3-b]pyridazin-2-yl]ethanone hydrochloride] | 257 |
| CCOc1nn2c(=N)n(CC(=O)c3cc(OCCO)cc(C(C)(C)C)c3)nc2c(CC)c1C [Example 221, 1-[3-tert-butyl-5-(2-hydroxy-ethoxy)phenyl]-2-(6-ethoxy-8-ethyl-3-imino-7-methyl-[1,2,4]triazolo[4,3-b]pyridazin-2-yl)ethanone hydrochloride] | 155 |
| CCOc1cc(C)c2nn(CC(=O)c3cc(OC(COC)COC)cc(C(C)(C)C)c3)c(=N)n2n1 [Example 127, 1-[3-tert-butyl-5-(2-methoxy-1-methoxymethylethoxy)phenyl]-2-(6-ethoxy-3-imino-8-methyl-[1,2,4]triazolo[4,3-b]pyridazin-2-yl)ethanone hydrochloride] | 2500 |
